This is an account of results in US11753404B2, “Aminothiazole compounds as c-Kit inhibitors” (Ariad Pharmaceuticals, Inc., priority 2016, dated 2023).

Common to all, as to experiment: c-Kit assay: Ba/F3 KIT mutant cell viability (Cell Titer-Glo, 72 hours)
What all share (assay type): cell-based
Holding throughout (conditions): viability after 72 hours

The target in one test is T1, BAF3 FL KIT EX11DEL (Homo sapiens, UniProt P10721, cells depend on it, form not given).
T1 construct: BAF3 FL KIT EX11DEL
T1 sequence (P10721 with tags, fused parts or gaps DEL557-558): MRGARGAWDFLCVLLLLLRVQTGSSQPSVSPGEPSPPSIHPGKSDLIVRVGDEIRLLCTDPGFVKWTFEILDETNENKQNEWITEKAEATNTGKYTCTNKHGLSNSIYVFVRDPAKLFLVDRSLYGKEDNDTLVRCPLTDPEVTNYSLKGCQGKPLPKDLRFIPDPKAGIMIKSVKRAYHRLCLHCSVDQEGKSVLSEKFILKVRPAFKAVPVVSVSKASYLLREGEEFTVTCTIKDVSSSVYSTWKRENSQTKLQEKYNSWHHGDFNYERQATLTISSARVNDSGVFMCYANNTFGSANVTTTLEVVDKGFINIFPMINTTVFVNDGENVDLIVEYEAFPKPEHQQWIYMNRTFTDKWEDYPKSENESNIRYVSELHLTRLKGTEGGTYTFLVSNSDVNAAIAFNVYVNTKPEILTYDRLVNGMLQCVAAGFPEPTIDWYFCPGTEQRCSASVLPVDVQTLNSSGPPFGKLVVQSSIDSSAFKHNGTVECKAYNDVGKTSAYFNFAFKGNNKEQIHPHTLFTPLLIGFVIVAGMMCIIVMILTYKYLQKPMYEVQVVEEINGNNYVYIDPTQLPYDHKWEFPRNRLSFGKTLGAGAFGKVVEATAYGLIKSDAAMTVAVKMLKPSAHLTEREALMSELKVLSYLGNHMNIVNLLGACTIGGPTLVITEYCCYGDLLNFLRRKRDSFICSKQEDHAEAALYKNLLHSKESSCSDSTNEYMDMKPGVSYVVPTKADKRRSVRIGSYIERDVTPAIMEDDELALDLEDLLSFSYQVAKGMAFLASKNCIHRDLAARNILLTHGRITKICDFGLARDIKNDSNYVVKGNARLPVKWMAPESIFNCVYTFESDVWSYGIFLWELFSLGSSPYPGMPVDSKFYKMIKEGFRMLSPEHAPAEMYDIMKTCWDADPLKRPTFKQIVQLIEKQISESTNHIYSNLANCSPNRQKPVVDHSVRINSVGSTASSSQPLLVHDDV
The procedure:
(§1) Generation of DBa/F3 KIT Mutant Engineered Cell Lines
(§2) KIT cDNAs were synthesized by GenScript and cloned into the pLVX-IRES-Puro vector (Clontech). Viral particles were produced by transfecting pLVX-IRES-puro vectors containing KIT mutant genes into HEK293 cells (Invitrogen) using the Trans-Lentiviral ORF Packaging Kit (Thermo Scientific). 48 hours post-transfection, virus-containing supernatants were harvested and incubated for another 48-72 hours with parental Ba/F3 cells (DSMZ) in the presence of 10 ng/mL IL-3 (R&D Systems). Transduced Ba/F3 cells were then selected by IL-3 withdrawal and puromycin (0.5-1 μg/mL, Invitrogen).
(§3) Cell lines (e.g., EX11DEL, EX11DEL/D816H, EX11DEL/T670I, and EX11DEL/V654A) were plated into 384 well plates using RPMI 1640 supplemented with 10% FBS at densities that produced linear growth and incubated at 37° C. in 5% (v/v) CO2. Cells were treated with eight concentrations of compound over a 4-fold dilution (10 μM to 0.61 nM) and viability was assessed using Cell Titer-Glo assay (Promega) after 72 hours. Data were plotted as percent viability relative to vehicle-treated cells. Dose-responses curves were generated and used to calculate IC50 values.

Test [1] concerns the target T2, BAF3 FL KIT EX11DEL/D816H (Homo sapiens, UniProt P10721, D816H, cells depend on it, form not given).
T2 construct: BAF3 FL KIT EX11DEL/D816H
As for the experimental part:
as §1, §2, §3

For test [2], the target named is T3, BAF3 FL KIT EX11DEL/T670I (Homo sapiens, UniProt P10721, T670I, cells depend on it, form not given).
T3 construct: BAF3 FL KIT EX11DEL/T670I
T3 sequence (P10721 with tags, fused parts or gaps DEL557-558/T670I, form open): as the sequence (P10721 with tags, fused parts or gaps DEL557-558) above, with T668I counted along it
As for the experimental part:
as §1, §2, §3

Test [3] deals with T4, BAF3 FL KIT EX11DEL/V654A (Homo sapiens, UniProt P10721, V654A, cells depend on it, form not given).
T4 construct: BAF3 FL KIT EX11DEL/V654A
T4 sequence (P10721 with tags, fused parts or gaps DEL557-558/V654A, form open): as the sequence (P10721 with tags, fused parts or gaps DEL557-558) above, with V652A counted along it
The procedure: as §1, §2, §3

Each structure is given as a SMILES string.

As usually defined, the GI50 is the concentration at which growth is held to half of that of the control.

T2 sequence (P10721 with tags, fused parts or gaps DEL557-558/D816H, form open): as the sequence (P10721 with tags, fused parts or gaps DEL557-558) above, with D814H counted along it

`Cc1ccc(NC(=O)c2cc(C(F)(F)F)ccn2)cc1C#Cc1cnc(NC(=O)N(C)CCO)s1` [I-60, N-(3-((2-(3-(2-hydroxyethyl)-3-methylureido)thiazol-5-yl)ethynyl)-4-methylphenyl)-4-(trifluoromethyl)picolinamide]: the GI50 at BAF3 FL KIT EX11DEL is under 10 nM; in test [1], 10 to 50 nM; in test [2] it was 50 to 100 nM; in test [3] it was 10 to 50 nM.

`Cc1ccc(C(=O)Nc2cc(C(F)(F)F)ccn2)cc1C#Cc1cnc(NC(=O)NCC(C)(C)O)s1` [I-15, 3-((2-(3-(2-hydroxy-2-methylpropyl)ureido)thiazol-5-yl)ethynyl)-4-methyl-N-(4-(trifluoromethyl)pyridin-2-yl)benzamide]: the GI50 at BAF3 FL KIT EX11DEL is under 10 nM; in test [1], 10 to 50 nM; in test [2], 10 to 50 nM; in test [3], 10 to 50 nM.

Regarding `Cc1ccc(C(=O)Nc2cc(C(F)(F)F)ccn2)cc1C#Cc1cnc(NC(=O)N2CC(C)(O)C2)s1` [I-24, 3-hydroxy-3-methyl-N-(5-((2-methyl-5-((4-(trifluoromethyl)pyridin-2-yl)carbamoyl)phenyl)ethynyl)thiazol-2-yl)azetidine-1-carboxamide], the GI50 (at BAF3 FL KIT EX11DEL; in test [1]; in test [2]; in test [3]) was under 10 nM each time.

As for `Cc1ccc(C(=O)Nc2cc(C(F)(F)F)ccn2)cc1C#Cc1cnc(NC(=O)NCc2ccncc2)s1` [I-26, 4-methyl-3-((2-(3-(pyridin-4-ylmethyl)ureido)thiazol-5-yl)ethynyl)-N-(4-(trifluoromethyl)pyridin-2-yl)benzamide], the GI50 (at BAF3 FL KIT EX11DEL; in test [1]; in test [2]; in test [3]) was 10 to 50 nM in each case.

Consider `COCCN(C)C(=O)Nc1ncc(C#Cc2cc(C(=O)Nc3ccc(CN4CCCC4)c(C(F)(F)F)c3)ccc2C)s1` [I-46, 3-((2-(3-(2-methoxyethyl)-3-methylureido)thiazol-5-yl)ethynyl)-4-methyl-N-(4-(pyrrolidin-1-ylmethyl)-3-(trifluoromethyl)phenyl)benzamide], for which the GI50 on BAF3 FL KIT EX11DEL was 10 to 50 nM; in test [1] it was 10 to 50 nM; in test [2], 10 to 50 nM; in test [3] it was 50 to 100 nM.

In the case of `Cc1ccc(C(=O)Nc2cc(C(F)(F)F)ccn2)cc1C#Cc1cnc(NC(=O)N(C)CC2CCCN2C)s1` (centres unmarked) [I-20, 4-methyl-3-((2-(3-methyl-3-((1-methylpyrrolidin-2-yl)methyl)ureido)thiazol-5-yl)ethynyl)-N-(4-(trifluoromethyl)pyridin-2-yl)benzamide], the GI50 is under 10 nM at BAF3 FL KIT EX11DEL, 10 to 50 nM in test [1], 10 to 50 nM in test [2] and 10 to 50 nM in test [3].

For the compound `Cc1ccc(C(=O)Nc2cc(C(F)(F)F)ccn2)cc1C#Cc1cnc(NC(=O)N(C)CC(C)(C)O)s1` [I-21, 3-((2-(3-(2-hydroxy-2-methylpropyl)-3-methylureido)thiazol-5-yl)ethynyl)-4-methyl-N-(4-(trifluoromethyl)pyridin-2-yl)benzamide], the GI50 on BAF3 FL KIT EX11DEL was under 10 nM; in test [1], 10 to 50 nM; in test [2] it was 10 to 50 nM; in test [3], 10 to 50 nM.

Take `Cc1ccc(C(=O)Nc2cc(C(F)(F)F)ccn2)cc1C#Cc1cnc(NC(=O)N(C)CCN(C)C)s1` [I-9, 3-((2-(3-(2-(dimethylamino)ethyl)-3-methylureido)thiazol-5-yl)ethynyl)-4-methyl-N-(4-(trifluoromethyl)pyridin-2-yl)benzamide]: the GI50 at BAF3 FL KIT EX11DEL was under 10 nM; in test [1] it was 10 to 50 nM; in test [2] it was under 10 nM; in test [3] it was 10 to 50 nM.

Regarding `Cc1ccc(C(=O)Nc2cc(C(F)(F)F)ccn2)cc1C#Cc1cnc(NC(=O)N(C)CCN2CCN(C)CC2)s1` [I-16, 4-methyl-3-((2-(3-methyl-3-(2-(4-methylpiperazin-1-yl)ethyl)ureido)thiazol-5-yl)ethynyl)-N-(4-(trifluoromethyl)pyridin-2-yl)benzamide], the GI50 on BAF3 FL KIT EX11DEL was under 10 nM; in test [1] it was 10 to 50 nM; in test [2], under 10 nM; in test [3], 10 to 50 nM.

`Cc1ccc(C(=O)Nc2cc(C(F)(F)F)ccn2)cc1C#Cc1cnc(NC(=O)N2CCOC(CN(C)C)C2)s1` (centres unmarked) [I-34, 2-((dimethylamino)methyl)-N-(5-((2-methyl-5-((4-(trifluoromethyl)pyridin-2-yl)carbamoyl)phenyl)ethynyl)thiazol-2-yl)morpholine-4-carboxamide]: the 50% growth inhibitory concentration (GI50) at BAF3 FL KIT EX11DEL was under 10 nM; in test [1] it was 10 to 50 nM; in test [2], 10 to 50 nM; in test [3] it was 10 to 50 nM.

In the case of `CNC(=O)Nc1ncc(C#Cc2cc(C(=O)Nc3cc(C(F)(F)F)ccn3)ccc2C)s1` [I-4, 4-methyl-3-((2-(3-methylureido)thiazol-5-yl)ethynyl)-N-(4-(trifluoromethyl)pyridin-2-yl)benzamide], the GI50 is under 10 nM on BAF3 FL KIT EX11DEL, under 10 nM in test [1], under 10 nM in test [2] and 10 to 50 nM in test [3].

As for `Cc1ccc(C(=O)Nc2cc(C(F)(F)F)ccn2)cc1C#Cc1cnc(NC(=O)NCCCCN)s1` [I-31, 3-((2-(3-(4-aminobutyl)ureido)thiazol-5-yl)ethynyl)-4-methyl-N-(4-(trifluoromethyl)pyridin-2-yl)benzamide], the GI50 was 10 to 50 nM on BAF3 FL KIT EX11DEL, 50 to 100 nM in test [1], 10 to 50 nM in test [2] and 50 to 100 nM in test [3].

Regarding `CNC(=O)Nc1ncc(C#Cc2cccc(C(=O)Nc3cc(C(F)(F)F)ccn3)c2)s1` [I-44, 3-((2-(3-methylureido)thiazol-5-yl)ethynyl)-N-(4-(trifluoromethyl)pyridin-2-yl)benzamide], the GI50 was under 10 nM on BAF3 FL KIT EX11DEL, 10 to 50 nM in test [1], under 10 nM in test [2] and 10 to 50 nM in test [3].

Take `CCN(C)C(=O)Nc1ncc(C#Cc2cc(C(=O)Nc3cc(C(F)(F)F)ccn3)ccc2C)s1` [I-8, 3-((2-(3-ethyl-3-methylureido)thiazol-5-yl)ethynyl)-4-methyl-N-(4-(trifluoromethyl)pyridin-2-yl)benzamide]: the GI50 at BAF3 FL KIT EX11DEL is under 10 nM; in test [1] it was under 10 nM; in test [2] it was under 10 nM; in test [3] it was 10 to 50 nM.

As to `Cc1ccc(C(=O)Nc2cc(C(F)(F)F)ccn2)cc1C#Cc1cnc(NC(=O)N2CCN(C)CC2)s1` [I-23, 4-methyl-N-(5-((2-methyl-5-((4-(trifluoromethyl)pyridin-2-yl)carbamoyl)phenyl)ethynyl)thiazol-2-yl)piperazine-1-carboxamide], the GI50 at BAF3 FL KIT EX11DEL is under 10 nM; in test [1], 10 to 50 nM; in test [2] it was under 10 nM; in test [3] it was 10 to 50 nM.

As for `Cc1ccc(C(=O)Nc2cc(C(F)(F)F)ccn2)cc1C#Cc1cnc(NC(=O)N2CCN(CCO)CC2)s1` [I-27, 4-(2-hydroxyethyl)-N-(5-((2-methyl-5-((4-(trifluoromethyl)pyridin-2-yl)carbamoyl)phenyl)ethynyl)thiazol-2-yl)piperazine-1-carboxamide], the GI50 at BAF3 FL KIT EX11DEL was under 10 nM; in test [1], 10 to 50 nM; in test [2], under 10 nM; in test [3], 10 to 50 nM.

As to `Cc1ccc(NC(=O)c2cccc(OC(F)(F)F)c2)cc1C#Cc1cnc(NC(=O)N(C)C)s1` [I-56, N-(3-((2-(3,3-dimethylureido)thiazol-5-yl)ethynyl)-4-methylphenyl)-3-(trifluoromethoxy)benzamide], the GI50 was under 10 nM on BAF3 FL KIT EX11DEL, 10 to 50 nM in test [1], 10 to 50 nM in test [2] and 10 to 50 nM in test [3].

With `Cc1ccc(C(=O)Nc2cc(C(F)(F)F)ccn2)cc1C#Cc1cnc(NC(=O)NC2CC2)s1` [I-17, 3-((2-(3-cyclopropylureido)thiazol-5-yl)ethynyl)-4-methyl-N-(4-(trifluoromethyl)pyridin-2-yl)benzamide], the GI50 on BAF3 FL KIT EX11DEL is under 10 nM; in test [1] it was 10 to 50 nM; in test [2], 10 to 50 nM; in test [3], 10 to 50 nM.

For `COCCN(C)C(=O)Nc1ncc(C#Cc2cc(C(=O)Nc3cc(C(F)(F)F)ccn3)ccc2C)s1` [I-7, 3-((2-(3-(2-methoxyethyl)-3-methylureido)thiazol-5-yl)ethynyl)-4-methyl-N-(4-(trifluoromethyl)pyridin-2-yl)benzamide], the GI50 on BAF3 FL KIT EX11DEL is under 10 nM; in test [1] it was 10 to 50 nM; in test [2], under 10 nM; in test [3], 10 to 50 nM.

For `Cc1ccc(C(=O)Nc2cc(C(F)(F)F)ccn2)cc1C#Cc1cnc(NC(=O)NCCN(C)C)s1` [I-11, 3-((2-(3-(2-(dimethylamino)ethyl)ureido)thiazol-5-yl)ethynyl)-4-methyl-N-(4-(trifluoromethyl)pyridin-2-yl)benzamide], the GI50 was under 10 nM on BAF3 FL KIT EX11DEL, 10 to 50 nM in test [1], 10 to 50 nM in test [2] and 10 to 50 nM in test [3].
